US12692253B2, “Antimicrobial compounds and methods” (Curza Global, LLC, priority 2019, dated 2026)
Like-named read-outs stand apart in the source and are kept apart here.

Tests used:
[1] = system: E. coli S30 extract (bacterial protein synthesis); assay: E. coli S30 extract coupled transcription-translation luciferase assay (inhibition of bacterial protein synthesis); type: biochemical; conditions: read-out: S30 IC50 (μM/% inhib.)
Summary of the method: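 Coupled transcription-translation in E. coli S30 circular-DNA extract expressing luciferase from pBESTluc, with 8-point 2-fold compound dilutions; 1 hour at 37 °C, stopped at 4 °C. Luminescence read; % inhibition versus no-inhibitor wells, no-DNA wells as background.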

E. coli (Ec) = assay: Broth microdilution minimum inhibitory concentration (MIC), CLSI; type: cell-based; conditions: for MIC: Escherichia coli, read-out: E. coli + bicarb MIC
Summary of the method: (§1)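 CLSI M07-A9 broth microdilution, slightly modified: 8 two-fold compound dilutions in triplicate, CAMHB ± bicarbonate (6.25 or 25 mM final) or 0-50% heat-inactivated human serum; 5×10^4 CFU/well.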

A. baumannn (Ab) = assay: as above; type: cell-based; conditions: for MIC: read-out: Ab + bicarb MIC
Summary of the method: as §1

P. aeruginosa (Pa) = assay: as above; type: cell-based; conditions: for MIC: Pseudomonas aeruginosa, read-out: Pa MIC + bicarb
Summary of the method: as §1

S. aureus (Sa) = assay: as above; type: cell-based; conditions: for MIC: Staphylococcus aureus, read-out: Sa + bicarb MIC
Summary of the method: as §1

E. faecalis (Ef) = assay: as above; type: cell-based; conditions: for MIC: Enterococcus faecalis, read-out: Ef + bicarb MIC
Summary of the method: as §1

[2] = molecular target: Rabbit Reticulocyte Lysate (eukaryotic protein synthesis); assay: Rabbit reticulocyte lysate luciferase assay (inhibition of eukaryotic protein synthesis); type: biochemical; conditions: read-out: Rabbit reticulocyte IC50 (μM/% inhib.)
Summary of the method: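 In vitro translation of luciferase control RNA in nuclease-treated rabbit reticulocyte lysate with amino acid mixture, compounds in 2-fold serial dilution, 90 minutes at 30° C. Luminescence read after luciferase reagent; % inhibition relative to water no-inhibitor controls, with no-RNA background wells.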

[3] = growth medium with sodium bicarbonate
[4] = A. baumannn, growth medium with sodium bicarbonate
[5] = class by IC50 or % inhibition @ 1 μM
[6] = growth medium supplemented with sodium bicarbonate

SMILES	IC50 ([1]; % inhibition @ 1 μM) [µM]	MIC (E. coli (Ec); [3]) [µg/mL]	MIC (A. baumannn (Ab); [4]) [µg/mL]	MIC (P. aeruginosa (Pa); [3]) [µg/mL]	MIC (S. aureus (Sa); [3]) [µg/mL]	MIC (E. faecalis (Ef); [3]) [µg/mL]	IC50 ([2]; % inhibition @ 1 μM) [µM]	IC50 [1, 5] [µM]	MIC (E. coli (Ec); [6]) [µg/mL]	MIC (A. baumannn (Ab); Acinetobacter baumannii) [µg/mL]	MIC (P. aeruginosa (Pa); [6]) [µg/mL]	MIC (S. aureus (Sa); [6]) [µg/mL]	MIC (E. faecalis (Ef); [6]) [µg/mL]	IC50 [2, 5] [µM]	E. coli + bicarb MIC (E. coli (Ec); [3])	Ab + bicarb MIC (A. baumannn (Ab); [4])	Pa MIC + bicarb (P. aeruginosa (Pa); [3])	Sa + bicarb MIC (S. aureus (Sa); [3])	Ef + bicarb MIC (E. faecalis (Ef); [3])
CC(Cc1ccc(-n2ccc(NC(=O)N3CCN(C(=O)C(C)(C)N)CC3)nc2=O)cc1)N(C)C12CC(CN)(C1)C2 (centres unmarked) [Compound 200]	≥ 1	< 8	> 32	> 32	< 8	> 32	≥ 1												
CC(C)(N)C(=O)N1CCN(C(=O)Nc2ccn(-c3ccc(CCN4CC5CC5(CN)C4)c(C(F)(F)F)c3)c(=O)n2)CC1 (centres unmarked) [Compound 131]								< 0.5	< 8	8 to 32	> 32	< 8	< 8	≥ 1					
CC(Cc1ccc(-n2ccc(NC(=O)N3CCN(C(=O)C(C)(C)N)CC3)nc2=O)cc1F)N1C[C@@H]2[C@@H](CN)[C@@H]2C1 (some centres unmarked) [Compound 139]								< 0.5	< 8	8 to 32	8 to 32	< 8	< 8	≥ 1					
NC[C@@H]1[C@H]2CN(C(=O)Nc3ccn(-c4ccc(CN5C[C@@H]6[C@@H](N)[C@@H]6C5)cc4)c(=O)n3)C[C@@H]12 [Compound 247]	≥ 1	> 32	> 32	> 32	> 32	> 32	≥ 1												
CC(Cc1ccc(-n2ccc(NC(=O)N3CCN(C(=O)C(C)(C)N)CC3)nc2=O)cc1)N1C[C@@H]2[C@@H](CN)[C@@H]2[C@H]1CO (some centres unmarked) [Compound 157]								< 0.5	< 8	> 32	> 32	< 8	8 to 32	≥ 1					
CN(Cc1ccc(-n2ccc(NC(=O)N3CCN(C(=O)C(C)(C)N)CC3)nc2=O)cc1)C12CCC(N)(CC1)CC2 [Compound 165]	0.5 to 1	< 8	8 to 32	> 32	< 8	< 8	≥ 1												
CC(Cc1ccc(-n2ccc(NC(=O)N3CCN(C(=O)C(C)(C)N)CC3)nc2=O)cc1)N1CC2CCC(N)CC2C1 (centres unmarked) [Compound 243]	0.5 to 1						≥ 1								+++ (An MIC value (μg/mL) that is less than 8 μg/mL)	+ (An MIC (μg/mL) value that is 32 μg/mL or greater)	+ (An MIC (μg/mL) value that is 32 μg/mL or greater)	++ (An MIC value (μg/mL) that is 8 μg/mL or greater and less than 32 μg/mL)	+ (An MIC (μg/mL) value that is 32 μg/mL or greater)
CC(Cc1ccc(-n2ccc(NC(=O)N3CCN(C(=O)C(C)(C)N)CC3)nc2=O)cc1)N1C[C@@H]2[C@@H](CN)[C@@H]2C1 (some centres unmarked) [Compound 122]								< 0.5	< 8	8 to 32	< 8	< 8	< 8	≥ 1					
C[C@@H]1CN(C(=O)C(C)(C)N)CCN1C(=O)Nc1ccn(-c2ccc(CN3C[C@@H]4[C@@H](N)[C@@H]4C3)cc2)c(=O)n1 [Compound 28]								< 0.5	< 8	> 32	> 32	< 8	< 8	≥ 1					
CC(C)(N)C(=O)N1CCN(C(=O)Nc2ccn(-c3ccc(CN4C[C@@H]5[C@@H](CN)[C@@H]5C4)cc3)c(=O)n2)CC1 [Compound 68]								< 0.5	< 8	> 32	> 32	< 8	> 32	≥ 1					
CC(C)(N)C(=O)N1CCN(C(=O)Nc2ccn(-c3cccc(CCN4CC5CC5(CN)C4)c3)c(=O)n2)CC1 (centres unmarked) [Compound 142]								0.5 to 1	< 8	> 32	> 32	8 to 32	8 to 32	≥ 1					
CC(Cc1ccc(-n2ccc(NC(=O)N3CCN(C(=O)C(C)(C)N)CC3)nc2=O)cc1)N(CC1CC1)C1CC2(CC(N)C2)C1 (centres unmarked) [Compound 194]	0.5 to 1	< 8	8 to 32	> 32	< 8	< 8	≥ 1												
CC[C@@H](N)C1[C@H]2CN(CCc3ccc(-n4ccc(NC(=O)N5CCN(C(=O)C(C)(C)N)CC5)nc4=O)cc3)C[C@@H]12 (some centres unmarked) [Compound 152]								≥ 1	8 to 32	> 32	> 32	> 32	> 32	≥ 1					
CC(C)(N)C(=O)N1CCN(C(=O)Nc2ccn(-c3ccc(CN4C5CCC4CC(N)C5)cc3)c(=O)n2)CC1 (centres unmarked) [Compound 58]								< 0.5	< 8	> 32	> 32	< 8	8 to 32	≥ 1					
CC(Cc1ccc(-n2ccc(NC(=O)N3CCN(C(=O)C(C)(C)N)CC3)nc2=O)cc1)N1CC2(CNC2)C1 (centres unmarked) [Compound 162]								≥ 1	8 to 32	> 32	> 32	8 to 32	> 32	≥ 1					
CC(C)(N)C(=O)N1CCN(C(=O)Nc2ccn(-c3ccc(CCN4CC5CC(N)C5C4)cc3)c(=O)n2)CC1 (centres unmarked) [Compound 96]								< 0.5	< 8	> 32	8 to 32	< 8	< 8	≥ 1					
CC(C)(N)C(=O)N1CCN(C(=O)Nc2ccn(-c3ccc(CCCN4CCC5(CC4)CC(N)C5)cc3)c(=O)n2)CC1 [Compound 180]	≥ 1	< 8	> 32	> 32	8 to 32	> 32	≥ 1												
CC(COc1ccc(-n2ccc(NC(=O)N3CCN(C(=O)C(C)(C)N)CC3)nc2=O)cc1)N1CC2(CC(N)C2)C1 (centres unmarked) [Compound 181]	0.5 to 1	< 8	> 32	> 32	< 8	< 8	≥ 1												
CC(C)(N)C(=O)N1CCN(C(=O)Nc2ccn(-c3ccc(C[C@H](N)C(=O)N4CC5CC5(CN)C4)cc3)c(=O)n2)CC1 (some centres unmarked) [Compound 183]	≥ 1	> 32	> 32	> 32	> 32	> 32	≥ 1												
CC(C)(N)C(=O)N1CCN(C(=O)Nc2ccn(-c3ccc(CN4C[C@@H]5C([C@H](N)CO)[C@@H]5C4)cc3)c(=O)n2)CC1 (some centres unmarked) [Compound 207]	< 0.5	< 8	> 32	> 32	< 8	8 to 32	≥ 1												
